Converted amounts (≈) assume the structure as drawn. “Also recorded” adds a separate entry of the source. Like-named read-outs stand apart in the source and are kept apart here.
Experiments:
[1] = system: C. albicans 475/15; test: Microdilution assay, MIC and MFC; assay type: cell-based; conditions: Candida albicans, C. albicans 475/15, mean ± SD of three replicates; for MFC: read-out: MFC; for MIC: read-out: MIC
Excerpt: (§1) C. albicans was isolated from oral cavities of patients at ENT Clinic, Clinical Hospital Centre Zvezdara, Belgrade, Serbia after obtaining informed written consent and identified by using CHROMagar plates (Biomerieux, Craponne, France). Strains were maintained on Sabouraud Dextrose Agar (Merck, Darmstadt, Germany) and are deposited at the Mycological Laboratory, Department of Plant Physiology, Institute for Biological Research “Siniša Stanković”, National Institute of Republic of Serbia, University of Belgrade. The collection of samples was approved by the Ethical Committee (Office for Human Research Protection, Zvezdara University Medical Center, Belgrade, Serbia, document issued 26 October 2016).
(§2) Microdilution assay with some modification was used for determination of minimum inhibitory (MIC) and minimum fungicidal concentrations (MFC). Yeast cultures were adjusted to 1.0 × 10^5 CFU/per well with sterile PBS (Phosphate buffered saline, pH 7.4). The 96-well microtiter plates with serially diluted flavonoids (concentration range 0.3–75 µg/mL) in liquid broth were incubated at 37 °C for 24 h. After incubation, MIC and MFC were determined. The lowest concentrations that were not inducing microscopically observed growth were considered as MIC. For microscopic determination of growth, we used inverted microscope Nikon Eclipse TS2 (Amsterdam, Netherland) and examined the fungal growth in the wells of 96-well microtiter plates compared to the control (untreated yeast cells). MFC values were determined as concentrations without visible growth after serial sub-cultivation of 10 µL of samples at 37 °C for 24 h. Ketoconazole and amphotericin B (SigmaAldrich, Darmstadt, Germany) were used as an antifungal control. The tested flavonoids were obtained from Extrasynthese, Rhone, France.

[2] = system: C. albicans 13/15; test: Microdilution assay, MIC and MFC; assay type: cell-based; conditions: Candida albicans, C. albicans 13/15, mean ± SD of three replicates; for MFC: read-out: MFC; for MIC: read-out: MIC
Excerpt: as §1, §2

[3] = system: C. albicans 10/15; test: Microdilution assay, MIC and MFC; assay type: cell-based; conditions: Candida albicans, C. albicans 10/15, mean ± SD of three replicates; for MFC: read-out: MFC; for MIC: read-out: MIC
Excerpt: as §1, §2

[4] = system: C. albicans 527/14; test: Microdilution assay, MIC and MFC; assay type: cell-based; conditions: Candida albicans, C. albicans 527/14, mean ± SD of three replicates; for MFC: read-out: MFC; for MIC: read-out: MIC
Excerpt: as §1, §2

[5] = system: C. albicans 475/15 biofilm formation; test: Inhibition of biofilm formation (crystal violet); assay type: cell-based, Candida albicans
Description: Potential of selected compounds to interfere with C. albicans 475/15 biofilm formation was investigated as previously described. Briefly, C. albicans 475/15 was incubated with serial dilution of the compounds (MIC and subMICs) in YPD medium, in 96-well microtiter plates with adhesive bottom (Sarstedt, Nümbrecht, Germany), at 37 °C for 24 h. After incubation, wells were washed twice with sterile PBS and methanol was added into each well. After fixation, methanol was discarded, and the plate was air dried. Formed biofilms were stained with 0.1% crystal violet (Bio-Merieux, Craponne, France) for 30 min. The plate was gently washed under the tap of water and air dried. The stain bound to the remaining biofilms was dissolved with ethanol (96%, Zorka, Šabac, Serbia). Absorbance was read on a Multiskan™ FC Microplate Photometer, Thermo Scientific™. The percentage of inhibition of biofilm formation was calculated by the formula:[(A620control − A620sample)/A620control] × 100

[6] = system: C. albicans 475/15; parameters: method as in PMID 28827996; conditions: previously published; cited from earlier work
[7] = in vitro; conditions: pig
Description: Preparation of PLP2 cell line was performed with freshly harvested porcine liver supplied from a local slaughter house. Tissues from the liver were washed in Hank’s balanced salt solution comprising 100 U/mL penicillin and 100 μg/mL streptomycin and split into 1 × 1 mm^3 explants. Some of the prepared explants were set in 25 cm^2 tissue flasks in Dulbecco’s modified Eagle’s medium (DMEM) with 10% fetal bovine serum (FBS), 2 mM nonessential amino acids, 100 U/mL penicillin, and […] streptomycin, and incubation was conducted at 37 °C with 5% CO2 in a humidified atmosphere. The fresh medium was added every 2 days. Cultivation of the cells was further conducted with direct observation by the phase contrast microscope every 2–3 days. Before confluence was achieved, cells were subcultured and seeded in 96-well plates at a density of 1.0 × 10^4 cells per well and cultivated in DMEM supplemented with 10% FBS, 100 U/mL penicillin, and 100 μg/mL streptomycin. Previously described Sulforhodamine B assay was used for the determination of cytotoxicity. The obtained results were defined as GI50 values corresponding to the compound concentration that inhibits 50% of the net cell growth. Ellipticine was used as a positive control.

[8] = system: C. albicans 475/15 hyphal growth; test: Anti-hyphal forming activity; assay type: cell-based, Candida albicans; conditions: MIC, 4 h, YPD + 10% FBS
Description: C. albicans 475/15 cells were incubated with MIC of tested compounds in YPD + 10% FBS, at 37 °C, for 4 h. Cells were examined under microscope (Nikon Eclipse TS2, Amsterdam, Netherland) and number of cells, growing in the yeast or hyphal and germ tube formations, was determined. Assay was performed in triplicate and percentage of hyphae was determined.

[9] = system: CDR1; test: Expression of CDR1 (qPCR); assay type: cell-based, Candida albicans; conditions: treatment with MIC
Description: (§3) Total RNA was isolated as described by Sanglard et al. with some modifications. C. albicans 475/15 was grown with agitation at 30 °C in YEPD until OD540 = 0.4. C. albicans cells were incubated with MIC of compounds in YEPD at 30 °C with agitation for 30 min. Cells were centrifuged (4600 rpm, 4 °C for 5 min (Rotanata 460 R, Hettich, Tuttlingen, Germany)) and the pellet was resuspended in 300 µL of RNA buffer (0.1 M Tris-HCl pH 7.5, 0.1M LiCl, 10mM EDTA, 0.5% SDS). The pellet was homogenized with 200 µL of DEPC treated glass beads and 300 µL of Phenol:Chloroform:Isoamyl Alcohol (Sigma-Aldrich, Darmstadt, Germany) in Precellys Evolution tissue homogenizer (Bertion instruments, Montigny-le-Bretonneux, France) at 4500 rpm for 5 s. After centrifugation (14,000 rpm, 4 °C, 1 min (Universal 32 R, Hettich, Tuttlingen, Germany)) 200 µL of supernatant was vortexed with 250 µL of Phenol:Chloroform:Isoamyl Alcohol for 10 s. Samples were centrifuged (14,000 rpm, 4 °C, 1 min) and 200 µL of supernatant was transferred to new tubes, 400 µL of ice-cold 99% ethanol was added to each tube, and they were kept on dry ice for 10 min. Samples were centrifuged (14,000 rpm, 4 °C, 2 min), pellet was washed with ethanol (70%), left to dry at room temperature, after which it was dissolved in 50 µL of DEPC treated water. Nanodrop (ND-1000, Witec AG, Sursee, Switzerland) was used for determination of concentration and purity of samples. RNA was stored at −80°C.
(§4) Amount of 10 µg RNA was incubated with 5 µL of DNAse buffer and 1 µL of DNAse at 37 °C for 30 min (DNA-free™ DNA Removal Kit, Ambion, Bleiswijk, Netherlands). After addition of DNAse inactivation reagent tubes were kept at room temperature with occasional vortexing for 5 min. Samples were centrifuged (14,000 rpm, 4°C, 2 min) and the concentration and quality of supernatant were analyzed on Nanodrop (ND-1000, Witec AG, Sursee, Switzerland).
(§5) Synthesis of cDNA was done with a Transcriptor High Fidelity cDNA synthesis kit (Roche). RNA (1 µg) was incubated with 60 µM random hexamer primers, in 11.4 µL of total sample volume, at 65 °C for 10 min. The mixture of Transcriptase reaction buffer 5×, Deoxynucleotide mix, DTT, Protector RNAse inhibitor, and Transcriptor High Fidelity Reverse Transcriptase was added to each tube according to manufacturer instructions. Synthesis of cDNA was completed by incubating the mixture at 50 °C for 30 min and 85 °C for 5 min (Peqstar thermocycler, Peqlab, Erlangen, Germany).
(§6) Wells of MicroAmp Fast 96-Well Reaction plate ((0.1 mL), Applied biosystems, Waltham, MA, USA) were incubated with 10 µL of mixture (cDNA, 2× MasterMix, primers, probe (Table 3), and water). Analysis was performed in StepOnePlus Real Time PCR system with relative standard curve method. Expression levels of CDR1 and ERG11 were normalized to expression of ACT1.

[10] = system: S. aureus efflux; parameters: method as in PMID 25961825; conditions: bacterial efflux pumps; cited from earlier work
[11] = system: HUVE (human umbilical vein endothelial) cells; conditions: read-out: LC50; cited from earlier work
[12] = system: C. albicans biofilm; conditions: cited from earlier work
[13] = system: ERG11; test: Expression of ERG11 (qPCR); assay type: cell-based, Candida albicans; conditions: treatment with MIC
Description: as §3, §4, §5, §6

[14] = system: C. albicans; conditions: cited from earlier work
[15] = system: Candida albicans; test: Microdilution assay, MIC (strain not named); assay type: cell-based; conditions: C. albicans, this study, strain not given, read-out: minimum inhibitory concentration (MIC)
Excerpt: as §1, §2

| SMILES | MFC [1] | MIC [1] | MFC [2] | MIC [2] | MFC [3] | MIC [3] | MFC [4] | MIC [4] | GI50 [7] | impact on ERG11 expression (words) [13] | further results |
| --- | --- | --- | --- | --- | --- | --- | --- | --- | --- | --- | --- |
| C[C@@H]1[C@H](O)[C@@H](C)/C=C/C=C/C=C/C=C/C=C/C=C/C=C/[C@H](O[C@@H]2O[C@H](C)[C@@H](O)[C@H](N)[C@@H]2O)C[C@@H]2O[C@](O)(C[C@@H](O)C[C@@H](O)[C@H](O)CC[C@@H](O)C[C@@H](O)CC(=O)O[C@H]1C)C[C@H](O)[C@H]2C(=O)O [Amphotericin B, amphotericin B, reference compound] | 1.25 ± 0.002 µg/mL (≈ 1.35 µM) | 0.63 ± 0.001 µg/mL (≈ 0.682 µM) | 1.25 ± 0.002 µg/mL (≈ 1.35 µM) | 0.63 ± 0.001 µg/mL (≈ 0.682 µM) | 1.25 ± 0.002 µg/mL (≈ 1.35 µM) | 0.63 ± 0.001 µg/mL (≈ 0.682 µM) | 1.25 ± 0.002 µg/mL (≈ 1.35 µM) | 0.63 ± 0.001 µg/mL (≈ 0.682 µM) |  |  |  |
| O=c1cc(-c2ccc(O)cc2)oc2cc(O)cc(O)c12 [Apigenin, apigenin] |  |  |  |  |  |  |  |  | > 400 µg/mL | negative impact | reduction of biofilm formation ([5]; concentration not given): more than 50%; MIC [6]: 100 µg/mL (≈ 370 µM); reduction of hyphal growth (words) [8]: lowest number of cells growing in the hyphal form; CDR1 expression level, log2FC ([9]; 30 min, normalized to ACT1): < −1 log2FC; impact on CDR1 expression ([9]; listed as apigenin): downregulated; also recorded: inhibitory impact; also recorded: lowering CDR1 expression; concentration that inhibited bacterial efflux pumps [10]: 38 µg/mL; CC50 [11]: 110 µM; antibiofilm effect ([12]; 125 µg/mL, oral and reference isolates SC5314 and 3153A): did not show any antibiofilm effect; concentration necessary for biofilm reduction ([12]; C. albicans ATCC 90028): 5 µg/mL; impact on ERG11 expression (words) ([13]; listed as apigenin): lower expression levels; also recorded: lowering ERG11 expression |
| C[C@@H]1O[C@@H](OC[C@H]2O[C@@H](Oc3c(-c4ccc(O)c(O)c4)oc4cc(O)cc(O)c4c3=O)[C@H](O)[C@@H](O)[C@@H]2O)[C@H](O)[C@H](O)[C@H]1O [Rutin, rutin] | 75 ± 1 µg/mL (≈ 123 µM) | 37.5 ± 1 µg/mL (≈ 61.4 µM) | 75 ± 2 µg/mL (≈ 123 µM) | 37.5 ± 1 µg/mL (≈ 61.4 µM) | 75 ± 2 µg/mL (≈ 123 µM) | 37.5 ± 1 µg/mL (≈ 61.4 µM) | 75 ± 1 µg/mL (≈ 123 µM) | 37.5 ± 1 µg/mL (≈ 61.4 µM) | > 400 µg/mL | lower expression levels; also recorded: negative impact; also recorded: lowering ERG11 expression | antibiofilm activity ([5]; MIC and subMICs): lowest activity against biofilm formation; inhibition of biofilm formation ([5]; compound applied at MIC): less than 50%; MIC ([14]; C. albicans ATCC 10231, ref 21): 40 µg/mL (≈ 65.5 µM); MIC ([14]; C. albicans ATCC 18804): > 1000 µg/mL; concentration necessary for growth inhibition ([14]; C. albicans CA-1): 1000 µg/mL; MIC [15]: 37.5 µg/mL (≈ 61.4 µM); antibiofilm activity ([12]; C. albicans CAD1 biofilm): lack of C. albicans CAD1 antibiofilm activity |

From PMC7824033, “Flavones, Flavonols, and Glycosylated Derivatives—Impact on Candida albicans Growth and Virulence, Expression of CDR1 and ERG11, Cytotoxicity” (Pharmaceuticals, 2020)
